From the supplement of paper PMC10307832

Key:
YM155 + Olaparib = compound: COCC[n+]1c2c(n(Cc3cnccn3)c1C)C(=O)c1ccccc1C2=O [YM155] + O=C(c1cc(Cc2n[nH]c(=O)c3ccccc23)ccc1F)N1CCN(C(=O)C2CC2)CC1 [Olaparib] (partner 8 µM); assay: relative viability (nuclei count vs DMSO), 5 days (fraction); higher = more cells survive
Outline: (§1)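 For relative viability, nuclei counts in treated wells were divided by those in vehicle wells. Lung cancer cell lines had been pin-tool dosed in 1536-well plates the day after seeding and cultured for 5 days, then fixed and stained in one step (final 0.05% Triton X-100, 1% formaldehyde, 1 ug/ml Hoechst) and imaged at 4×. Doses were one drug alone or a fixed anchor-drug dose plus five library-drug doses (not always all listed) in √10 steps, and values are duplicate-plate medians.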

Quizartinib + Pemetrexed = compound: CC(C)(C)c1cc(NC(=O)Nc2ccc(-c3cn4c(n3)sc3cc(OCCN5CCOCC5)ccc34)cc2)no1 [Quizartinib] + Nc1nc2[nH]cc(CCc3ccc(C(=O)N[C@@H](CCC(=O)O)C(=O)O)cc3)c2c(=O)[nH]1 [Pemetrexed] (partner 0.2 µM); assay: as above
Outline: as §1

With NCI-H1648 the relative viability (YM155 + Olaparib; first compound 0.006325 µM) was 1.06, the relative viability (YM155 + Olaparib; first compound 0.02 µM) was 0.6 and the relative viability (YM155 + Olaparib; first compound 0.06325 µM) was 0.762. For the same cell line, the relative viability (Quizartinib + Pemetrexed; first compound 0.003162 µM) was 0.617, the relative viability (Quizartinib + Pemetrexed; first compound 0.03162 µM) was 0.552 and the relative viability (Quizartinib + Pemetrexed; first compound 0.1 µM) was 1.05.
